Measurements reported in patent publication US20120040956A1, “INHIBITORS OF HIF-1 PROTEIN ACCUMULATION” (INTERMED DISCOVERY GMBH, priority 2008, published 2012).

How the values were obtained:
[1] = tested on: IKKy/NEMO; experiment: Cellular protein translation in 293T cells (anti-IKKy/NEMO immunoblotting); type: cell-based, human; conditions: 10 h and 24 h; for anti-IKKy/NEMO signal (cellular protein translation): 100 nM
Experimental: 293T cells were grown in the presence of the known translation inhibitor cycloheximide (10 μg/ml) and 100 nM of IMD-019064, IMD-026259 and IMD-026260 respectively. […] Cells were harvested after 10 h and 24 h and cell lysates were produced. Equal amounts of protein contained in the cell lysates were used for immunoblotting with anti-IKKy/NEMO antibodies as shown in FIG. 12. IKKy/NEMO is a constitutively expressed relatively labile protein. Thus successful inhibition of cellular protein translation should result in significant decline of anti-IKKy/NEMO signal.

[2] = tested on: HIF-1α mRNA; experiment: Hif-1α mRNA expression by real-time PCR; type: cell-based; conditions: human cells, 250 nM for 3 h, normoxic or hypoxic (45 minutes, 1% O2)
Experimental: In order to investigate whether the compounds of the invention do exert their HIF-1-1 suppressive action via inhibition of HIF-1-1 transcription the compounds were tested for their effects on HIF-1α mRNA production. In all experiments, human cells were exposed to efficiently blocking concentrations (250 nM) of the test compounds for 3 h. Then cells were further cultivated under normoxic or hypoxic conditions (45 minutes, 1% O2) respectively. Afterwards cell samples were harvested and RNA was extracted. cDNA was synthesized using specific primers and the PE Applied Biosystems Reverse Transcription Reagents. Real-time PCR was performed by using the SYBR Green I detection chemistry (Applied Biosystems) and an ABI Prism 7300 system. The expression of Hif-1α was quantified and results were normalized to Hprt1 and β-Actin (“housekeeping-gene”) expression. The relative abundance of the different genes was calculated by the comparative CT method. HIF-1α transcription of normoxic control cells was arbitrarily set to 1. […] Therefore an effect of IMD-compounds on HIF-1-dependent gene expression seems not to be mediated on HIF-1α transcription (FIG. 5).

[3] = tested on: HUVEC; experiment: Spheroid-based angiogenesis assay, VEGF-A induced HUVEC sprouting; type: cell-based, human; conditions: after hypoxic or VEGF induction, summary statement
Experimental: As described in Example 4 HUVEC spheroids were generated, cultivated and embedded in a 3D collagen gel and stimulated with Vascular Endothelial Growth Factor alpha [VEGF-A; 25 ng/ml] instead of deferoxamine. Cell spheroids were treated for 24 h with different concentrations of IMD-026259; IMD-026260; Sutent® (Sunitinib) and Sorafenib (Nexavar®) (in Molar [M], as indicated in Table 4; see also FIG. 14A).
The cumulative sprout length of 10 randomly selected spheroids per data point was analyzed and the relative inhibition by the test compound determined. Fitting of IC50 curves and calculation of IC50 values was performed with GraphPad Prism® 5.01 (trademarked by GraphPad Software Inc.). […] Results from the examples described above are summarized in FIG. 14b IC50 values are given in nM for in vitro angiogenesis (HUVEC sprouting) studies after hypoxic or VEGF induction.

[4] = tested on: HUVEC; experiment: Spheroid-based angiogenesis assay, Deferoxamine (hypoxia) induced HUVEC sprouting; type: cell-based, human
Experimental: (§1) Prior application the stock solution [100 mM] of IMD-019064 was diluted 1:10 in DMSO and serially diluted in half logarithmic steps covering the concentration range from 10 mM to 1 μM using 100% DMSO. The final assay concentration ranged from 100 μM to 10 nM with a final DMSO concentration in the assay of 1%. The experiments were pursued in modification of the originally published protocol (Korff and Augustin: J Cell Sci 112: 3249-58, 1999). In brief, spheroids were prepared as described by Korff and Augustin: J Cell Biol 143: 1341-52, 1998) by pipetting 500 endothelial cells (EC) in a hanging drop on plastic dishes to allow overnight spheroid aggregation. 50 EC spheroids were then embedded in 0.9 ml of a 3D collagen matrix and pipetted into individual wells of a 24 well plate to allow polymerization.
(§2) Plates were incubated at 37° C. for 24 hours and fixed by adding 4% paraformaldehyde. The cumulative sprout length of 10 randomly selected spheroids per data point was analyzed and the relative inhibition by the test compound determined. Fitting of IC50 curves and calculation of IC50 values was performed with GraphPad Prism 5.01. Sprouting intensity of EC and fibroblast spheroids was quantitated by an image analysis system using an inverted microscope and the digital imaging software Analysis 3.2 (Soft imaging system, Munster, Germany). In parallel NHDF (fibroblast) spheroids were embedded in a 3D collagen gel and treated for 24 h with different concentrations of IMD-019064. The cumulative sprout length of 10 randomly selected spheroids per data point was analyzed according to the procedure used for the HUVEC experiment.
The same assays were performed with IMD-026260; IMD-026259; Sutent® (Sunitinib) and Sorafenib (Nexavar®) (see Table 3 for final compound concentrations).

[5] = tested on: cell-free protein translation (BMV mRNA, ribosomes); experiment: Cell-free protein translation of Brome mosaic virus (BMV) mRNA with ribosomes; type: biochemical; conditions: for effect on in vitro protein translation: relevant (nM) concentrations, SDS-PAGE
Experimental: The effect of IMD-019064 on cell-free protein translation in vitro was investigated (see also assay principle in FIG. 8). Brome mosaic virus (BMV) mRNA encoding for 4 different viral proteins was incubated with ribosomes in the presence and absence of IMD-019064 (FIG. 9a), IMD-026259, IMD-026260 (FIG. 9b), or cycloheximide (Chx, 10 μM) (positive control) and the formed proteins analyzed by SDS-PAGE.
Panels show representative SDS-PAGE protein gels. Vehicle-containing translation reactions (Veh) represent 100% translation efficacy, while Cycloheximide (Chx; 10 μg/ml) a known inhibitor of protein translation that was used as a positive control does show significant protein reduction.

[6] = tested on: HIF-1; experiment: HIF-1-dependent luciferase reporter gene activity in 293T cells under hypoxia; type: cell-based, human; conditions: for time-dependency of inhibition of HIF-1-dependent luciferase expression: 250 nM, added 4 hours after induction of hypoxia (8 h, 1% O2)
Experimental: A HIF-1-dependent luciferase reporter gene was transfected into 293T cells by transfection with Rotifect™ (Trademarked by Carl Roth GmbH; Karlsruhe, Germany) or alternatively into Jurkat T cells by electroporation. Both cell lines were transfected with a HIF-1-dependent reporter gene. The next day, cells were preincubated for 1 h with the indicated, submicromolar concentrations of the test compounds and then incubated for further 8 h under normoxic or hypoxic (1% O2) conditions. After that, cells were harvested followed by the analysis of luciferase activity in a luminometer.
A HIF-1-dependent luciferase reporter gene was transfected into 293T cells. The next morning, cells were pretreated for 1 h with the indicated concentrations of compounds, followed by induction of hypoxia (hypoxia chamber) for 8 h. Subsequently cells were harvested and lyzed. Luciferase activity in cell extracts was measured in a luminometer (Duo Lumat LB 9507, Berthold) by injecting 20 microliter of assay buffer to 20 microliter of extract. Light emission was measured for 10 s, relative light units are given.
After transfection of 293T cells with a HIF-1-dependent luciferase reporter gene, cells were further incubated under normoxic or hypoxic (8 h, 1% O2) conditions as shown in FIG. 4. Effectively blocking concentrations of the IMDs (250 nM each) were added either 1 hour prior to hypoxia or 2 and 4 hours after induction of hypoxia.

[7] = tested on: HIF-1α protein; experiment: Hypoxia induced HIF-1α protein accumulation in 293T cells (immunoblotting); type: cell-based, human; conditions: 250 nM, 1 h preincubation, hypoxia 4 h, 1% O2
Experimental: Effects of IMD-026259, IMD-026260 and IMD-019064 on the stabilisation/accumulation of HIF-1α protein were investigated. 293T cells were preincubated with the indicated concentrations of all three compounds. After 1 h of pre-incubation, 293T cells were pre-incubated with the indicated concentrations of compounds and then further incubated under normoxic or hypoxic (4 h, 1% O2) conditions respectively. After lysis of cells in 1×SDS sample buffer and sonication, the samples were analyzed for HIF-1α abundance by immunoblotting.

[8] = tested on: endothelial cells; experiment: Incorporation of radiolabeled amino acids into unstimulated and IL-1b-stimulated endothelial cells; type: cell-based
Experimental: Compounds of the formula (I) have been reported in the literature to be un-specific inhibitors of protein synthesis. Thus, the question whether IMD-019064 (a rocaglaol derivative) is a direct inhibitor of protein synthesis has been addressed at different levels. Cellular assays (incorporation of radiolabeled amino acids into unstimulated and IL-1b-stimulated endothelial cells) were performed in order to investigate if inhibition of activated signaling cascades (e.g. IL-1 signalling pathway) may contribute to inhibitory activity of IMD-019064.

[9] = tested on: NHDF (fibroblast); experiment: NHDF (fibroblast) spheroid sprouting/scattering in 3D collagen gel; type: cell-based; conditions: Homo sapiens, 24 h, read-out: IC50, NHDF fibroblast spheroid sprouting/scattering
Experimental: as §1, with “50 EC spheroids were then embedded in 0.9 ml of a 3D collagen matrix and pipetted into individual wells of a 24 well plate to allow polymerization.” left out
as §2, with “Fitting of IC50 curves and calculation of IC50 values was performed with GraphPad Prism 5.01.” left out, “In parallel NHDF (fibroblast) spheroids were embedded in a 3D collagen gel and treated for 24 h with different concentrations of IMD-019064.” left out, “experiment. […]” for “experiment.”

[10] = tested on: PDK1 (pyruvate dehydrogenase kinase1); experiment: HIF-1 target gene PDK1 expression in 293T cells by real-time PCR; type: cell-based; conditions: Homo sapiens, HEK-293T, 1 h pretreatment, 8 h hypoxia, read-out: IC50, suppression of endogenous PDK1 gene expression
Experimental: Human 293T cells were cultivated either under normoxic conditions or under hypoxic conditions (1% oxygen) for 4 and 8 hs respectively. Cells were harvested, followed by the isolation of RNA and the generation of cDNAs from Oligo (dT)20 primers using a Reverse Transcriptase kit. Then gene expression was measured by real-time PCR for the following two selected HIF-1α target genes: LDH-A (lactate dehydrogenase isoform A), and PDK1 (pyruvate dehydrogenase kinase1). Real-time PCR was performed with cDNA using specific primers and the SYBR Green I detection chemistry system (Applied Biosystems), utilizing an ABI Prism 7300 system. Actin was also measured as an internal control. The relative abundance of the different genes was calculated by the comparative CT method. In order to facilitate comparison, gene expression under normoxic conditions was arbitrarily set to 1 for each of the three genes. Two independent experiments confirmed PDK1 as the gene which was induced most prominently compared to LDH.
To investigate the capability of the compounds to inhibit PDK1, 293T cells were pretreated for 1 h with 3 different concentrations of the respective inhibitors (IMD-019064; IMD-026259; and IMD-026260). Subsequently, cells were incubated under normoxic/hypoxic conditions for further 8 h and the expression of PDK1 was quantified by real-time PCR as described above.

Row | Structure (SMILES) | anti-IKKy/NEMO signal (cellular protein translation) [1] | effect on Hif-1α mRNA production [2] | inhibition of angiogenic sprouting in vitro (HUVEC sprouting) [3] | effect on in vitro protein translation [5] | time-dependency of inhibition of HIF-1-dependent luciferase expression [6] | further results
1 | COc1ccc(C23Oc4cc(OC)cc(OC)c4C2(O)C(O)CC3c2cccc(F)c2)cc1 (centres unmarked) [IMD-019064, (1,3,3a,8b)-3-(3-fluorophenyl)-6,8-dimethoxy-3a-(4-methoxyphenyl)-2,3,3a,8b-tetrahydro-1H-benzo[d]cyclopenta[b]furan-1,8b-diol] | did not result in reduced anti-IKKy/NEMO signals | did not show any effects | potent inhibitors of angiogenic sprouting in vitro | No significant effect | able to inhibit HIF-1-dependent luciferase expression even when added 4 hours after hypoxic induction | IC50 ([4]; Homo sapiens, HUVEC, 24 h, read-out: IC50, hypoxia induced EC (HUVEC) sprouting): 30 nM; difference in HUVEC and fibroblast sensitivity ([4]; NHDF IC50 versus Deferoxamine-induced HUVEC IC50): factor six; block of HIF-1α protein accumulation [7]: almost completely block; shift of the dose-response curve to higher concentrations, un-stimulated compared to IL-1 stimulated cells, inhibition of amino acid incorporation [8]: 20 factor; IC50 [9]: 180 nM
2 | OC1CC(c2ccccc2)C2(c3ccc(Cl)cc3)Oc3cc(OCCN4CCCC4)ccc3C12O (centres unmarked) [IMD-026259, (1,3a,8b)-3a-(4-chlorophenyl)-3-phenyl-6-(2-(pyrrolidin-1-yl)ethoxy)-2,3,3a,8b-tetrahydro-1H-benzo[d]cyclopenta[b]furan-1,8b-diol] | did not result in reduced anti-IKKy/NEMO signals | did not show any effects | potent inhibitors of angiogenic sprouting in vitro | No significant effect | able to inhibit HIF-1-dependent luciferase expression even when added 4 hours after hypoxic induction | IC50 ([6]; Homo sapiens, HEK-293T, 1 h pretreatment, hypoxia 8 h, read-out: IC50, HIF-1 luciferase inhibitory activity): 19 nM; IC50 [10]: 9 nM
3 | CNC(=O)c1cc(Oc2ccc(NC(=O)Nc3ccc(Cl)c(C(F)(F)F)c3)cc2)ccn1 [Nexavar, Sorafenib, reference compound] | – | – | – | – | – | activity on HUVEC sprouting ([4]; HUVECs induced by Deferoxamine (hypoxia)): did not show any activity at all
4 | C[C@@H]1C[C@@H]([C@H](O)CC2CC(=O)NC(=O)C2)C(=O)[C@@H](C)C1 [cycloheximide, reference compound] | – | – | – | – | – | inhibition of cellular protein translation (positive control) ([1]; cycloheximide 10 μg/ml): powerful inhibition of protein translation; effect on in vitro protein translation (positive control) ([5]; cycloheximide 10 μM / 10 μg/ml): potently suppressed formation of newly synthesized proteins
